From US20130123494A1, “COMPLEX COMPOUND AND OPTICAL RECORDING MEDIUM CONTAINING SAME” (KH NEOCHEM CO., LTD., priority 2010, published 2013) come the findings set out here.

Holding throughout (type): physicochemical
A short description of data set [1]: Moisture- and heat-resistances test of thin films. Conditions: thin film, 80° C., relative humidity 80%, 100 hours. The procedure:
Similarly to the film-forming test, thin films of Complex Compounds (2) to (5), (7), (9) to (11), (13) to (21), (24), (26), (28), (30), (31), and (33) were respectively obtained. Using a constant temperature and humidity chamber, KHWII-40HP, manufactured by Satake Chemical Equipment Mfg Ltd., the thin films were exposed in the atmosphere having a temperature of 80° C. and a relative humidity of 80% for 100 hours. Ultraviolet-visible absorption spectra of the thin films before and after the moisture- and heat-resistances test were measured using a spectrophotometer. […] Here, the absorption maximum wavelength after the moisture- and heat-resistances test denotes the absorption maximum wavelength in an absorption spectrum after the moisture- and heat-resistances test.

Data set [2] can be described thus: Test of storage stability in solution. The settings on record: 13 mg in 1 mL TFP, brown bottle, 25° C., 3 days; 1250-fold diluted for measurement. The method, then:
Each of 13 mg of Complex Compounds (2) to (5), (7), (9) to (11), (13) to (21), (24), (26), (28), (30), (31), and (33) was dissolved in 1 mL of TFP, which was filtered with a filter made of TEFLON (registered trademark) (manufactured by Whatman, having a pore diameter of 0.20 μm), and solutions of Complex Compounds (2) to (5), (7), (9) to (11), (13) to (21), (24), (26), (28), (30), (31), and (33) were respectively obtained. Each of the obtained solutions was transferred to a brown bottle with a lid and stored at 25° C. for 3 days. Before and after the storage stability test, using a spectrophotometer, 1250-fold diluted solutions of Complex Compounds (2) to (5), (7), (9) to (11), (13) to (21), (24), (26), (28), (30), (31), and (33), respectively, were measured for their ultraviolet-visible absorption spectra. […] Here, the absorption maximum wavelength after the storage stability test is the absorption maximum wavelength in the absorption spectrum after the storage stability test.

Data set [3] can be described thus: Lightfastness test of thin films. The settings on record: thin film on glass plate, UV fluorescent lamps 15 W/m^2, 45° C., 10 hours. The source says:
Thin films of Complex Compounds (2) to (5), (7), (9) to (11), (13) to (21), (24), (26), (28), (30), (31), and (33) were respectively obtained similarly to the film-forming test except that a glass plate (manufactured by Taiyu Kizai Co., Ltd.; 2 cm×2 cm; thickness: 2 mm) was used as the substrates instead of the plate made of polycarbonate resin. Using a dewpanel light control weather meter DPWL-5R, manufactured by Suga Test Instruments Co., Ltd., which was equipped with ultraviolet fluorescent lamps (SUGA-FS40, manufactured by Suga Test Instruments Co., Ltd., having a peak wavelength of 313 nm and an illuminance distribution of 282 nm to 373 nm), light was irradiated on the thin films with an amount of light of 15 W/m^2 at 45° C. for 10 hours. Ultraviolet-visible absorption spectra of the thin film before and after the lightfastness test were measured using a spectrophotometer.
Here, the absorption maximum wavelength after lightfastness test denotes an absorption maximum wavelength in the absorption spectrum after the lightfastness test.

Data set [4] is described as follows: Water resistance test of thin films. The settings on record: for I^d/I^d0 (absorbance ratio at absorption maximum after/before water resistance test) / Δλmax (d) (change in absorption maximum wavelength): thin film immersed in water at 75° C. for 30 minutes; for Water resistance of thin film (in words): thin film in water at 75° C. for 30 minutes. The procedure:
Similarly to the film-forming test, thin films of Complex Compounds (2), (3), (13), (19), and (20) were respectively obtained. Ultraviolet-visible absorption spectra of the thin films were measured using a spectrophotometer before and after the water resistance test in which the thin films were immersed in water at 75° C. for 30 minutes. […] Here, the absorption maximum wavelength after the water resistance test denotes the absorption maximum wavelength in the absorption spectrum after the water resistance test. […] Here, the water resistance test is a test under severe conditions, and a thin film having the ratio (I^d/I^d0) of 0.5 or greater has favorable water resistance.

Turning to `Cc1c(/C=N/[N-]c2nnnn2-c2ccccc2)c([O-])n(CC(C)C)c(=O)c1C#N.Cc1c(/C=N/[N-]c2nnnn2-c2ccccc2)c([O-])n(CC(C)C)c(=O)c1C#N.Cc1c(/C=N/[N-]c2nnnn2-c2ccccc2)c([O-])n(CC(C)C)c(=O)c1C#N.Cc1c(/C=N/[N-]c2nnnn2-c2ccccc2)c([O-])n(CC(C)C)c(=O)c1C#N.[Co+3].[Co+3].c1ccc(-[n+]2ccc(-c3cc[n+](-c4ccccc4)cc3)cc2)cc1` [Complex Compound (13)], in data set [1], the “I^b/I^b0 (absorbance ratio at absorption maximum after/before moisture- and heat-resistances test)” value was 0.99; the “Δλmax(b) (change in absorption maximum wavelength)” value turned out to be 0 nm. Moreover, in data set [2], the “I^c/I^c0 (absorbance ratio at absorption maximum after/before storage stability test)” value was 0.99 and the “Δλmax(c) (change in absorption maximum wavelength)” value is recorded as 0 nm. Also, the “I^a/I^a0 (absorbance ratio at absorption maximum after/before lightfastness test)” value in data set [3] is 0.87. For the same compound, in data set [4], the “I^d/I^d0 (absorbance ratio at absorption maximum after/before water resistance test)” value is 0.59, the “Δλmax (d) (change in absorption maximum wavelength)” value worked out at 0.5 nm and the “Water resistance of thin film (in words)” value is “superior water resistance”.

With `Cc1c(/C=N/[N-]c2nnnn2-c2ccccc2)c([O-])n(CC(C)C)c(=O)c1C#N.Cc1c(/C=N/[N-]c2nnnn2-c2ccccc2)c([O-])n(CC(C)C)c(=O)c1C#N.Cc1c(/C=N/[N-]c2nnnn2-c2ccccc2)c([O-])n(CC(C)C)c(=O)c1C#N.Cc1c(/C=N/[N-]c2nnnn2-c2ccccc2)c([O-])n(CC(C)C)c(=O)c1C#N.FC(F)(F)c1cccc(-[n+]2ccc(-c3cc[n+](-c4cccc(C(F)(F)F)c4)cc3)cc2)c1.[Co+3].[Co+3]` [Complex Compound (19)], in data set [1], the “I^b/I^b0 (absorbance ratio at absorption maximum after/before moisture- and heat-resistances test)” value came out at 0.99; the “Δλmax(b) (change in absorption maximum wavelength)” value was 0 nm. In data set [2], the “I^c/I^c0 (absorbance ratio at absorption maximum after/before storage stability test)” value is recorded as 0.99 and the “Δλmax(c) (change in absorption maximum wavelength)” value was 0 nm. For the same compound, the “I^a/I^a0 (absorbance ratio at absorption maximum after/before lightfastness test)” value in data set [3] was 0.85. In data set [4], the “I^d/I^d0 (absorbance ratio at absorption maximum after/before water resistance test)” value is on record as 0.76, the “Δλmax (d) (change in absorption maximum wavelength)” value amounted to 0 nm and the “Water resistance of thin film (in words)” value is “superior water resistance”.

Regarding `Cc1c(/C=N/[N-]c2nnnn2-c2ccccc2)c([O-])n(CC(C)C)c(=O)c1C#N.Cc1c(/C=N/[N-]c2nnnn2-c2ccccc2)c([O-])n(CC(C)C)c(=O)c1C#N.Cc1c(/C=N/[N-]c2nnnn2-c2ccccc2)c([O-])n(CC(C)C)c(=O)c1C#N.Cc1c(/C=N/[N-]c2nnnn2-c2ccccc2)c([O-])n(CC(C)C)c(=O)c1C#N.Fc1ccc(-[n+]2ccc(-c3cc[n+](-c4ccc(F)cc4)cc3)cc2)cc1.[Co+3].[Co+3]` [Complex Compound (20)], in data set [1], the “I^b/I^b0 (absorbance ratio at absorption maximum after/before moisture- and heat-resistances test)” value worked out at 1.00; the “Δλmax(b) (change in absorption maximum wavelength)” value was determined as 0.5 nm. Moreover, in data set [2], the “I^c/I^c0 (absorbance ratio at absorption maximum after/before storage stability test)” value is listed as 1.00 and the “Δλmax(c) (change in absorption maximum wavelength)” value is 0.5 nm. The “I^a/I^a0 (absorbance ratio at absorption maximum after/before lightfastness test)” value in data set [3] was determined as 0.86. In addition, in data set [4], the “I^d/I^d0 (absorbance ratio at absorption maximum after/before water resistance test)” value turned out to be 0.59, the “Δλmax (d) (change in absorption maximum wavelength)” value amounted to 0.5 nm and the “Water resistance of thin film (in words)” value was “superior water resistance”.
